Measurements as given in patent US20060052451A1, “Method” (priority 2002, published 2006).

Key:
PPAR alpha = target: T1, PPAR alpha (Rattus norvegicus, UniProt P37230); experiment: PPAR alpha transactivation assay in COS-1 cells; type: cell-based; details: at 10 μM, mean±SD n=3
T1 construct: 25 ng of vector DNA carrying PPAR alpha, delta or gamma; expressed in transfected cells; host or cells: COS-1 (African green monkey kidney cells)
T1 sequence (P37230 1-468): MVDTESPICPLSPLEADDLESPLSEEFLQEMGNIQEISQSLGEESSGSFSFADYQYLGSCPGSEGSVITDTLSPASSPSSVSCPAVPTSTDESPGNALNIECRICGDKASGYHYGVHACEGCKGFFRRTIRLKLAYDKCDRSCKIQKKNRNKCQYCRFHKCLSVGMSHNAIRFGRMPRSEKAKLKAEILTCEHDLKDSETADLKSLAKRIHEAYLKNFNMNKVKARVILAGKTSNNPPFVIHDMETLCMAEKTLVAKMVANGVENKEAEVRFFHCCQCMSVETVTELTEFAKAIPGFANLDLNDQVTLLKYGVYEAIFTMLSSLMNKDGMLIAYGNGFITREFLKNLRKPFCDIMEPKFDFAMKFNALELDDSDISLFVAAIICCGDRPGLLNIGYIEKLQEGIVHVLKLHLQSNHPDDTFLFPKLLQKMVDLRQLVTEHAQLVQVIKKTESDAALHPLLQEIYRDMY

[1] = Plasma levels of PFOA after 11 days oral dosing in SD rats (LC/MS/MS); type: in vivo, rat; details: 25 mg/kg oral daily for 11 days, 24 hours after final administration
Protocol: The study consisted of one control group of 8 male CD Sprague Dawley rats (8-10-weeks old; obtained from Harlan, UK) and 4 test groups that contained 4 rats. Animals received powdered RM1 diet ad libitum for the duration of the study. […] All chemicals were dissolved in Mazola corn oil (at 2.5 mg/ml) and test compounds were administered at 10 ml/kg bodyweight. Control animal received Mazola corn oil only. All animals were sacrificed after 11 days. Animals were killed by exposure to rising concentrations of CO2, and blood was harvested into lithium/heparin tubes for plasma.
Rat plasma samples were denatured by adding acetonitrile, and the amount of perfluorooctanoic acid (PFOA) present was determined by LC/MS/MS.

[2] = 21-day diet study, bodyweights of SD rats; type: in vivo, rat; details: 300 ppm in diet, 21 days
Protocol: This experiment investigated the effect of compounds of different % linearity on body weight over a longer study period.
The diet study consisted of one control group of 4 male animals and 4 test groups of 4 male animals (as specified earlier in this Example). Animals received powdered RM1 diet alone, or RM1 diet containing 300 ppm XEN1001 or XEN1002, ad libitum for the duration of the study. Bodyweights were measured daily for 21 days.

Fold activation of PPAR alpha, positive control (PPAR alpha) [fold]	Structure (SMILES)	Plasma concentration of PFOA (free acid) [1]	Lost bodyweight up to day [2] [days]
8.88 ± 1.94	Cc1cccc(Nc2cc(Cl)nc(SCC(=O)O)n2)c1C [Wyeth14643]	–	–
–	N.O=C(O)C(F)(F)C(F)(F)C(F)(F)C(F)(F)C(F)(F)C(F)(F)C(F)(F)F [XEN1001, Ammoniumperfluorooctanoate]	equimolar concentrations of PFOA	7
